ChEMBL document CHEMBL5055650, “4-Acyl Pyrrole Capped HDAC Inhibitors: A New Scaffold for Hybrid Inhibitors of BET Proteins and Histone Deacetylases as Antileukemia Drug Leads” (J Med Chem, 2021)
Activity calls are given as the source filed them. The calls are words filed in the database; no cut-off is given here.

How the values were obtained:
Danio rerio [1] = species on record: Danio rerio; assay: Toxicity in zebrafish embryos assessed as brain hemorrhage at 5 uM after 72 hrs by visual analysis (reference value: 0%); type: organism-based; conditions: in vivo
[2] = target: Bromodomain-containing protein 2 (Homo sapiens, UniProt P25440); assay: Binding affinity to human BRD2 domain 1 assessed as dissociation constant by isothermal titration calorimetry assay
Danio rerio [3] = species on record: Danio rerio; assay: Toxicity in zebrafish embryos assessed as malformation of head at 0.5 uM after 72 hrs by visual analysis (reference value: 0%); type: organism-based; conditions: in vivo
Danio rerio [4] = species on record: Danio rerio; assay: Toxicity in zebrafish embryos assessed as malformation of tail at 0.5 uM after 72 hrs by visual analysis (reference value: 5%); type: organism-based; conditions: in vivo
Danio rerio [5] = species on record: Danio rerio; assay: Toxicity in zebrafish embryos assessed as malformation of head at 5 uM after 72 hrs by visual analysis (reference value: 0%); type: organism-based; conditions: in vivo
HL-60 = assay: Cytotoxicity against human HL-60 cells assessed as cell viability at 5 uM by CellTiter-Glo luminescent assay; type: functional; conditions: read-out: Activity
Danio rerio [6] = species on record: Danio rerio; assay: Toxicity in zebrafish embryos assessed as cardiac teratogenesis/necrosis at 0.5 uM after 72 hrs by visual analysis (reference value: 0%); type: organism-based, Embryo; conditions: in vivo
Danio rerio [7] = species on record: Danio rerio; assay: Toxicity in zebrafish embryos assessed as head necrosis at 50 uM after 72 hrs by visual analysis (reference value: 0%); type: organism-based; conditions: in vivo
Danio rerio [8] = species on record: Danio rerio; assay: Toxicity in zebrafish embryos assessed as brain hemorrhage at 0.05 uM after 72 hrs by visual analysis (reference value: 0%); type: organism-based; conditions: in vivo
Danio rerio [9] = species on record: Danio rerio; assay: Toxicity in zebrafish embryos assessed as tail necrosis at 0.05 uM after 72 hrs by visual analysis (reference value: 0%); type: organism-based; conditions: in vivo
HPBALL [10] = assay: Anticancer activity against human HPBALL cells assessed as reduction in size of colony at 5 uM measured after 24 hrs by colony formation assay; type: functional, cell-based
Danio rerio [11] = assay: Toxicity in zebrafish embryos assessed as pericardial edema at 5 uM after 72 hrs by visual analysis (reference value: 10%); type: organism-based, Embryo; conditions: in vivo
Danio rerio [12] = assay: Toxicity in zebrafish embryos assessed as pericardial edema at 0.5 uM after 72 hrs by visual analysis (reference value: 10%); type: organism-based, Embryo; conditions: in vivo
Danio rerio [13] = species on record: Danio rerio; assay: Toxicity in zebrafish embryos assessed as brain hemorrhage at 0.5 uM after 72 hrs by visual analysis (reference value: 0%); type: organism-based; conditions: in vivo
Danio rerio [14] = species on record: Danio rerio; assay: Toxicity in zebrafish embryos assessed as malformation of head at 0.005 uM after 72 hrs by visual analysis (reference value: 0%); type: organism-based; conditions: in vivo
HPBALL [15] = assay: Anticancer activity against human HPBALL cells assessed as reduction in total number of colony forming units at 5 uM measured after 24 hrs by colony formation assay; type: functional, cell-based
Danio rerio [16] = species on record: Danio rerio; assay: Toxicity in zebrafish embryos assessed as malformation of tail at 50 uM after 72 hrs by visual analysis (reference value: 5%); type: organism-based; conditions: in vivo
Danio rerio [17] = assay: Toxicity in zebrafish embryos assessed as yolk sac edema at 0.05 uM after 72 hrs by visual analysis (reference value: 0%); type: organism-based, Embryo; conditions: in vivo
[18] = Nonlethal toxicity in zebrafish embryos assessed as embryo survival at 50 uM after 72 hrs by visual analysis (reference value: 100%); type: organism-based, Danio rerio; conditions: in vivo
Danio rerio [19] = species on record: Danio rerio; assay: Toxicity in zebrafish embryos assessed as head necrosis at 5 uM after 72 hrs by visual analysis (reference value: 0%); type: organism-based; conditions: in vivo
Danio rerio [20] = species on record: Danio rerio; assay: Toxicity in zebrafish embryos assessed as teratogenesis at 50 uM after 72 hrs by visual analysis (reference value: 0%); type: organism-based, Embryo; conditions: in vivo
[21] = Nonlethal toxicity in zebrafish embryos assessed as embryo survival at 0.5 uM after 72 hrs by visual analysis (reference value: 100%); type: organism-based, Danio rerio; conditions: in vivo
Danio rerio [22] = species on record: Danio rerio; assay: Toxicity in zebrafish embryos assessed as malformation of tail at 5 uM after 72 hrs by visual analysis (reference value: 5%); type: organism-based; conditions: in vivo
Danio rerio [23] = species on record: Danio rerio; assay: Toxicity in zebrafish embryos assessed as cardiac teratogenesis/necrosis at 50 uM after 72 hrs by visual analysis (reference value: 0%); type: organism-based, Embryo; conditions: in vivo
Danio rerio [24] = species on record: Danio rerio; assay: Toxicity in zebrafish embryos assessed as tail necrosis at 0.5 uM after 72 hrs by visual analysis (reference value: 0%); type: organism-based; conditions: in vivo
Danio rerio [25] = species on record: Danio rerio; assay: Toxicity in zebrafish embryos assessed as small eyes at 50 uM after 72 hrs by visual analysis (reference value: 10%); type: organism-based, Embryo; conditions: in vivo
Danio rerio [26] = species on record: Danio rerio; assay: Toxicity in zebrafish embryos assessed as cardiac teratogenesis/necrosis at 0.05 uM after 72 hrs by visual analysis (reference value: 0%); type: organism-based, Embryo; conditions: in vivo
Danio rerio [27] = species on record: Danio rerio; assay: Toxicity in zebrafish embryos assessed as cardiac teratogenesis/necrosis at 0.005 uM after 72 hrs by visual analysis (reference value: 0%); type: organism-based, Embryo; conditions: in vivo
Danio rerio [28] = assay: Toxicity in zebrafish embryos assessed as yolk sac edema at 5 uM after 72 hrs by visual analysis (reference value: 0%); type: organism-based, Embryo; conditions: in vivo
Danio rerio [29] = assay: Toxicity in zebrafish embryos assessed as yolk sac edema at 50 uM after 72 hrs by visual analysis (reference value: 0%); type: organism-based, Embryo; conditions: in vivo
[30] = target: Bromodomain-containing protein 3 (Homo sapiens, UniProt Q15059); assay: Binding affinity to human BRD3 domain 1 assessed as dissociation constant by isothermal titration calorimetry assay
Histone deacetylase 1 = Histone deacetylase 1 (Homo sapiens, UniProt Q13547); assay: Inhibition of human recombinant HDAC1 assessed as fluorescence using fluorogenic substrate ZMAL incubated for 90 min by microplate reader
Danio rerio [31] = species on record: Danio rerio; assay: Toxicity in zebrafish embryos assessed as malformation of head at 50 uM after 72 hrs by visual analysis (reference value: 0%); type: organism-based; conditions: in vivo
Danio rerio [32] = assay: Toxicity in zebrafish embryos assessed as yolk sac edema at 0.005 uM after 72 hrs by visual analysis (reference value: 0%); type: organism-based, Embryo; conditions: in vivo
Danio rerio [33] = species on record: Danio rerio; assay: Toxicity in zebrafish embryos assessed as cardiac teratogenesis/necrosis at 5 uM after 72 hrs by visual analysis (reference value: 0%); type: organism-based, Embryo; conditions: in vivo
Danio rerio [34] = species on record: Danio rerio; assay: Toxicity in zebrafish embryos assessed as malformation of head at 0.05 uM after 72 hrs by visual analysis (reference value: 0%); type: organism-based; conditions: in vivo
HPBALL [35] = assay: Anticancer activity against human HPBALL cells assessed as cell growth inhibition by CellTiter-Glo luminescent assay; type: functional, cell-based
HPBALL [36] = assay: Induction of apoptosis in human HPBALL cells assessed as increase in caspase3/7 activity at 5 uM after 48 hrs by luminescent based Glo assay; type: functional, cell-based
Histone deacetylase 2 = Histone deacetylase 2 (Homo sapiens, UniProt Q92769); assay: Inhibition of human HDAC2 assessed as target activity using fluorogenic substrate ZMAL for 90 min by microplate reader at 355nm
HPBALL [37] = assay: Induction of apoptosis in human HPBALL cells assessed as annexin V positive cells at 5 uM after 48 hrs by annexin V/PI staining measured by flow cytometry; type: functional, cell-based
Danio rerio [38] = species on record: Danio rerio; assay: Toxicity in zebrafish embryos assessed as malformation of tail at 0.005 uM after 72 hrs by visual analysis (reference value: 5%); type: organism-based; conditions: in vivo
HPBALL [39] = assay: Induction of apoptosis in human HPBALL cells assessed as increase in apoptotic cells at 5 uM after 24 hrs using annexin V/PI followed by flow cytometry; type: functional, cell-based
HPBALL [40] = assay: Induction of apoptosis in human HPBALL cells assessed as increase in apoptotic cells at 5 uM after 48 hrs by using annexin V/PI followed by flow cytometry; type: functional, cell-based
HPBALL [41] = assay: Induction of apoptosis in human HPBALL cells assessed as increase in apoptotic cells at 5 uM after 72 hrs using annexin V/PI followed by flow cytometry; type: functional, cell-based
K562 = assay: Induction of apoptosis in human K562 cells assessed as apoptosis at 3.4 uM after 24 to 72 hrs using annexin V/PI followed by flow cytometry; type: functional, cell-based; conditions: time 24-72 hrs

Histone deacetylase 2, sequence (Q92769 whole entry): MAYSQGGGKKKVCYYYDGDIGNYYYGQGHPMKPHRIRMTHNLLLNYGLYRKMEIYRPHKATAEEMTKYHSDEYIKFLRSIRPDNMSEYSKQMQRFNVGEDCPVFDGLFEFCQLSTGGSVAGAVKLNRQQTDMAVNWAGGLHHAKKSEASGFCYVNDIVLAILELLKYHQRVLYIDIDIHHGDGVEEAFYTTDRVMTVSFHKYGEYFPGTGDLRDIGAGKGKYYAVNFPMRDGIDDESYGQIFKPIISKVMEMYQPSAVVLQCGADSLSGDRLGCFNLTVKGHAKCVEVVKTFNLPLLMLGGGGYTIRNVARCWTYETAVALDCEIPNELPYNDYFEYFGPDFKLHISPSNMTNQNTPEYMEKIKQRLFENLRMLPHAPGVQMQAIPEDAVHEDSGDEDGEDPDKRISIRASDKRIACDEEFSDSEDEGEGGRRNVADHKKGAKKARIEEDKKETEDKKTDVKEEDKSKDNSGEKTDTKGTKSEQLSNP
Bromodomain-containing protein 2, sequence (P25440 whole entry, the tested form may be a part): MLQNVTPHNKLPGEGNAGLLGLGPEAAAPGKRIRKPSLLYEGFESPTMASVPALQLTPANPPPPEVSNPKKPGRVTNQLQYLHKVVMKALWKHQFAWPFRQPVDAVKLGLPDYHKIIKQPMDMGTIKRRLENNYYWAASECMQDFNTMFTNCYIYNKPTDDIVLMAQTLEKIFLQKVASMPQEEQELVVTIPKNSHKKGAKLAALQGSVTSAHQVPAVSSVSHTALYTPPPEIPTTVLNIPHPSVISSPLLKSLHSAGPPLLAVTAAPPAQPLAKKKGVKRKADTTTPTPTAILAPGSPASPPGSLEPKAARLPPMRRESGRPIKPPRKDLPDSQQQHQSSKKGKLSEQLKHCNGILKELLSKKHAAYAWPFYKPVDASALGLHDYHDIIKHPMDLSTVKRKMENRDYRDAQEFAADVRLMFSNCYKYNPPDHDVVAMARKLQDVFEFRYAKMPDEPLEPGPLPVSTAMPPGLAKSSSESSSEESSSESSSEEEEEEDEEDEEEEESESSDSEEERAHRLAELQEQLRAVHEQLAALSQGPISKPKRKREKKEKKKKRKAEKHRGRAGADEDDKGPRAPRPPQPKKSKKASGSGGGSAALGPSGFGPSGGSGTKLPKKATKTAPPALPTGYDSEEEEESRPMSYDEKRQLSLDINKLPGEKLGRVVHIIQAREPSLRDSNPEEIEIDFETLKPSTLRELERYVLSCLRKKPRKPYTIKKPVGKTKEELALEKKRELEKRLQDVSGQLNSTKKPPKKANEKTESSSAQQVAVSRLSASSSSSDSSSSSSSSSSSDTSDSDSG
Bromodomain-containing protein 3, sequence (Q15059 whole entry, the tested form may be a part): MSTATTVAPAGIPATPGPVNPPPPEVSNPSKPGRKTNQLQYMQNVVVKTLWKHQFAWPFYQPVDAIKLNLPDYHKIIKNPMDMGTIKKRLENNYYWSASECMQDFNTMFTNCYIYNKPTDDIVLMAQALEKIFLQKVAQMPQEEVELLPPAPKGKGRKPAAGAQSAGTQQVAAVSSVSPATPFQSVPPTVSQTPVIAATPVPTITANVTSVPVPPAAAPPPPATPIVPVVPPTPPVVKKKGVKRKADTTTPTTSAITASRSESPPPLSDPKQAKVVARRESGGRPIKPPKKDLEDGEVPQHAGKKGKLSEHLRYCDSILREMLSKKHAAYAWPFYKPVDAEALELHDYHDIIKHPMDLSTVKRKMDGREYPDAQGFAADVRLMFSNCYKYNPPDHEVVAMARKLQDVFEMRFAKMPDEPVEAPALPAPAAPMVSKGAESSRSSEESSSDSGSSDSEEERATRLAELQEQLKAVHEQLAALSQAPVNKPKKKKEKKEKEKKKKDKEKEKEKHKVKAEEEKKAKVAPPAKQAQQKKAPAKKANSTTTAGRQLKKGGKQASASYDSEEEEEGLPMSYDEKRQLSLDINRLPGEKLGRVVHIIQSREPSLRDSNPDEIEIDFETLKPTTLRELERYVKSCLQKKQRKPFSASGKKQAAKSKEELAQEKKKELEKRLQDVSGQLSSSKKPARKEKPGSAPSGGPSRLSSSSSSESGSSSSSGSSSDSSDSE
Histone deacetylase 1, sequence (Q13547 whole entry): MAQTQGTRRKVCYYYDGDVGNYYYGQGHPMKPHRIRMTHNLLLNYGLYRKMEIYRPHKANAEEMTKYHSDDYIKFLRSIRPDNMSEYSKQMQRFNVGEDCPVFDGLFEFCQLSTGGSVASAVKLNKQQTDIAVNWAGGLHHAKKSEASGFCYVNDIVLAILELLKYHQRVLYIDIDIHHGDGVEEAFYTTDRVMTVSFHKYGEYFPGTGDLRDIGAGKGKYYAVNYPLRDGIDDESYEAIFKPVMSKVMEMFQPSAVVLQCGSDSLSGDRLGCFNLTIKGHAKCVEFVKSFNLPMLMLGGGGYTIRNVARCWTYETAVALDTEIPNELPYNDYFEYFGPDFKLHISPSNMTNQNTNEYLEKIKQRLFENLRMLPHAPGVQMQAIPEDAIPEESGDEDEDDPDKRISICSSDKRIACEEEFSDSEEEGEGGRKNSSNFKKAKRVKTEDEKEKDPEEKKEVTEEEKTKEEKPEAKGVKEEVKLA

For `Cc1[nH]c(C(=O)Nc2cc(S(=O)(=O)N3CCOCC3)ccc2OCCCCCCCC(=O)NO)c2c1C(=O)CCCC2`, the Activity (Danio rerio [1]) was 0%, the Kd [2] was 0.027 µM and the Activity (Danio rerio [3]) was 15%. It also gave an Activity (Danio rerio [4]) of 15%, an Activity (Danio rerio [5]) of 0% and a viability at 5 µM (HL-60) of 35.9%. For the same molecule, the Activity (Danio rerio [6]) was 0%, the Activity (Danio rerio [7]) was 15% and the Activity (Danio rerio [8]) was 0%. For the same molecule, the Activity (Danio rerio [9]) was 0%, the Activity (HPBALL [10]) was “Active” and the Activity (Danio rerio [11]) was 10%. The Activity (Danio rerio [12]) was 20%, the Activity (Danio rerio [13]) was 0% and the Activity (Danio rerio [14]) was 15%. For the same molecule, the Activity (HPBALL [15]) was “Active”, the Activity (Danio rerio [16]) was 15% and the Activity (Danio rerio [17]) was 5%. The survival at 72 h, 50 µM [18] was 100%, the Activity (Danio rerio [19]) was 0% and the Activity (Danio rerio [20]) was 0%. For the same molecule, the survival at 72 h, 0.5 µM [21] was 100%, the Activity (Danio rerio [22]) was 10% and the Activity (Danio rerio [23]) was 0%. It also gave an Activity (Danio rerio [24]) of 0%, an Activity (Danio rerio [25]) of 10% and an Activity (Danio rerio [26]) of 0%. It also gave an Activity (Danio rerio [27]) of 0%, an Activity (Danio rerio [28]) of 0% and an Activity (Danio rerio [29]) of 10%. It also gave a Kd [30] of 0.037 µM, an IC50 (Histone deacetylase 1) of 0.163 µM and an Activity (Danio rerio [31]) of 15%. The Activity (Danio rerio [32]) was 5%, the Activity (Danio rerio [33]) was 40% and the Activity (Danio rerio [34]) was 0%. The IC50 (HPBALL [35]) was 7.13 µM, the Activity (HPBALL [36]) was “Active” and the IC50 (Histone deacetylase 2) was 0.534 µM. The Activity (HPBALL [37]) was “Active” and the Activity (Danio rerio [38]) was 5%.

With `COc1ccc(S(=O)(=O)n2ccc(/C=C/C(=O)NO)c2)cc1NC(=O)c1[nH]c(C)c2c1CCCCC2=O` the Kd [2] was 0.23 µM, the viability at 5 µM (HL-60) was 42.3% and the Activity (HPBALL [39]) was “Active”. The Activity (HPBALL [40]) was “Active”, the Activity (HPBALL [41]) was “Active” and the Kd [30] was 1.5 µM. The IC50 (Histone deacetylase 1) was 0.093 µM, the IC50 (HPBALL [35]) was 6.31 µM and the Activity (HPBALL [36]) was “Active”. It also gave an IC50 (Histone deacetylase 2) of 0.208 µM.

In the case of `CCc1c(C(=O)Nc2cc(/C=C/C(=O)NO)ccc2OC)[nH]c(C)c1C(C)=O`, the Kd [2] is reported as 7.4 µM, the Activity (K562) is reported as “Active” and the viability at 5 µM (HL-60) is reported as 22.1%. For the same molecule, the Activity (HPBALL [39]) was “Active”, the Activity (HPBALL [40]) was “Active” and the Activity (HPBALL [41]) was “inactive”. For the same molecule, the Kd [30] was 5.65 µM, the IC50 (Histone deacetylase 1) was 0.179 µM and the IC50 (HPBALL [35]) was 6.79 µM. For the same molecule, the inhibition (HPBALL [36]) was “Active” and the IC50 (Histone deacetylase 2) was 0.359 µM.
